“And” between values parts separate entries of the source, which are not always exact repeats. Equal entries are not always repeated.
Key:
[1] = test system: PD-L1 expression in A2780 and LLC cells; test: PD-L1 expression (western blot, flow cytometry, qRT-PCR) in A2780 and LLC cells; format: cell-based, human, mouse; settings: 72 h
Method: For surface marker detection, tumor single-cell suspensions and spleen lymphocytes were incubated at 4 °C for 30 min in PBS with 0.1% Fixable Viability Dye (eBioscience 65-0863-14). Cells were washed and incubated in staining buffer (PBS with 1% FBS) with surface marker antibodies, the dilution ratio of all flow antibodies was 1:200 (BioLegend, CD3-APC 100235, CD3-PE 100205, CD4-FITC 100405, CD8-APC 100711, CD8-PE 100707, CD45-APC 103112, PD-L1-PE 124307, adsorbed secondary antibody-APC, and CD69-PE 104511). The cells were then washed and resuspended in staining buffer for flow cytometry. For cytokine detection, tumor single-cell suspensions and spleen lymphocytes were incubated in RPMI-1640 with 10% FBS and 0.2% Cell Stimulation Cocktail (plus protein transport inhibitors) (eBioscience 00-4975-93) at 37 °C for 12 h. […] Flow cytometry was performed on ACEA NovoCyte, and the data were analyzed using NovoExpress. […]
Total RNA was isolated using TRIzol reagent (Invitrogen, 15596026) according to the manufacturer’s protocol. […] Quantitative real-time PCR analysis was performed by mixing 10 μl SYBR, 0.4 μM forward primer, 0.4 μM reverse primer, 1 μl cDNA, and 8.2 μl distilled water per sample with Top Green qPCR SuperMix (Transgene, AQ601-04) by the manufacturer’s protocols. […]

A20 tumors = test: A20 tumor-bearing Balb/c mice; format: in vivo, mouse; settings: A20 model; FK866 20 mg/kg, LZFPN-90 20 and 40 mg/kg i.p.
[2] = test system: NAD+ content of LLC OE NAMPT/PD-L1 tumor tissue; test: NAD+ in tumor tissue, LLC OE NAMPT/PD-L1 mouse model; format: in vivo; settings: 20 mg/kg; tumor tissue
[3] = test system: LLC OE NAMPT/PD-L1 tumors; test: LLC OE NAMPT/PD-L1 tumor-bearing C57BL/6 mice; format: in vivo, mouse; settings: 20 mg/kg i.p.; 14 days; Fig 7B
[4] = test system: NAD+ content of A2780 cells; test: NAD+ assay in A2780 cells; format: cell-based, human
Method: NAD^+ assays were performed to quantify the total NAD^+ content. NAD^+ assay was performed using the NAD/NADH Assay Kit (ab65348; Abcam) according to the manufacturer’s recommended protocol.

SMILES	effect on PD-L1 expression [1]	effect on mouse organ or body weight (A20 tumors)	NAD+ in 20 mg tissue [2]	TIR / tumor growth inhibition (TGI) rate at endpoint [3]	Relative NAD+ ([4]; NMN 1 μM added to LZFPN-90 (NMN 0 μM values equal those of 5 nM LZFPN-90))	Relative NAD+ ([4]; NMN 5 μM added to LZFPN-90)	Relative NAD+ ([4]; NMN 10 μM added to LZFPN-90)	Relative NAD+ ([4]; NMN 20 μM added to LZFPN-90)	Relative NAD+ ([4]; NMN 40 μM added to LZFPN-90)
O=C(/C=C/c1cccnc1)NCCCCC1CCN(C(=O)c2ccccc2)CC1 [FK866, reference compound]	upregulated global and membrane PD-L1 expression	caused a reduction in the body weight of the mice	98.7342 and 119.831 and 110.802	43.62%					
NC(=O)c1ccc[n+]([C@@H]2O[C@H](COP(=O)([O-])O)[C@@H](O)[C@H]2O)c1 [NMN, nicotinamide mononucleotide]					79.1005 and 77.5282	81.63 and 81.9669	85.5982 and 82.7424	92.0905 and 93.6414	91.3204 and 94.481
CC(NC(=O)c1ccccc1/N=C/c1c(O)ccc2ccccc12)c1ccccc1 (stereo not shown) [Sirtinol]	PD-L1 was upregulated at both the mRNA and protein levels								

Reference: publication PMC11018795, “The regulatory relationship between NAMPT and PD-L1 in cancer and identification of a dual-targeting inhibitor” (EMBO Molecular Medicine, 2024)
